Values joined by “and” are separate entries in the source; they are usually repeats but may differ in a detail not shown here. Equal entries are not always repeated. Structures can show the parent of a compound that is named as a salt. Where two headings read alike, the source gives them in different places.
What was measured:
Test in all cases: qHTS cell viability (CellTiter-Glo, 72 h; primary and follow-up small molecule screen)
Type in all cases: cell-based, human
MCC13 cells (VN-MCC) = tested on: MCC13 cells (VN-MCC)
MCC26 cells (VN-MCC) = tested on: MCC26 cells (VN-MCC)
UISO cells (VN-MCC) = tested on: UISO cells (VN-MCC)
WAGA cells (VP-MCC) = tested on: WAGA cells (VP-MCC)
MKL-1 cells (VP-MCC) = tested on: MKL-1 cells (VP-MCC)
MKL-2 cells (VP-MCC) = tested on: MKL-2 cells (VP-MCC)
[1] = follow-up screen, MCC13, replicate 1
[2] = follow-up screen, MCC13, replicate 2
[3] = follow-up screen, MCC13, replicate 3
[4] = follow-up screen, MCC26, replicate 1
[5] = follow-up screen, MCC26, replicate 2
[6] = follow-up screen, MCC26, replicate 3
[7] = follow-up screen, UISO, replicate 1
[8] = follow-up screen, UISO, replicate 2
[9] = follow-up screen, UISO, replicate 3
[10] = follow-up screen, WAGA, replicate 1
[11] = follow-up screen, WAGA, replicate 2
[12] = follow-up screen, WAGA, replicate 3
[13] = follow-up screen, MKL-1, replicate 1
[14] = follow-up screen, MKL-1, replicate 2
[15] = follow-up screen, MKL-1, replicate 3
[16] = follow-up screen, MKL-2, replicate 1
[17] = follow-up screen, MKL-2, replicate 2
[18] = follow-up screen, MKL-2, replicate 3

Structure (SMILES) | Area under the dose-response curve (AUC) MCC13 Replicate 1 (MCC13 cells (VN-MCC); [1]) | Area under the dose-response curve (AUC) MCC13 Replicate 2 (MCC13 cells (VN-MCC); [2]) | Area under the dose-response curve (AUC) MCC13 Replicate 3 (MCC13 cells (VN-MCC); [3]) | Area under the dose-response curve (AUC) MCC26 Replicate 1 (MCC26 cells (VN-MCC); [4]) | Area under the dose-response curve (AUC) MCC26 Replicate 2 (MCC26 cells (VN-MCC); [5]) | Area under the dose-response curve (AUC) MCC26 Replicate 3 (MCC26 cells (VN-MCC); [6]) | Area under the dose-response curve (AUC) UISO Replicate 1 (UISO cells (VN-MCC); [7]) | Area under the dose-response curve (AUC) UISO Replicate 2 (UISO cells (VN-MCC); [8]) | Area under the dose-response curve (AUC) UISO Replicate 3 (UISO cells (VN-MCC); [9]) | Area under the dose-response curve (AUC) WAGA Replicate 1 (WAGA cells (VP-MCC); [10]) | Area under the dose-response curve (AUC) WAGA Replicate 2 (WAGA cells (VP-MCC); [11]) | Area under the dose-response curve (AUC) WAGA Replicate 3 (WAGA cells (VP-MCC); [12]) | Area under the dose-response curve (AUC) MKL-1 Replicate 1 (MKL-1 cells (VP-MCC); [13]) | Area under the dose-response curve (AUC) MKL-1 Replicate 2 (MKL-1 cells (VP-MCC); [14]) | Area under the dose-response curve (AUC) MKL-1 Replicate 3 (MKL-1 cells (VP-MCC); [15]) | Area under the dose-response curve (AUC) MKL-2 Replicate 1 (MKL-2 cells (VP-MCC); [16]) | Area under the dose-response curve (AUC) MKL-2 Replicate 2 (MKL-2 cells (VP-MCC); [17]) | Area under the dose-response curve (AUC) MKL-2 Replicate 3 (MKL-2 cells (VP-MCC); [18]) | other results
O=c1c(O)c(-c2ccccc2)oc2cc(O)cc(O)c12 [GALANGIN] | 501.1 | 489.1 | 476.8 | 408.8 | 418.1 | 468.3 | 448.5 | 479.0 | 418.3 | 517.0 | 423.5 | 495.5 | 418.0 | 452.0 | 473.1 | 358.3 | 486.3 | 480.7 | 
CC(C)=CCC[C@]1(C)C=Cc2c(O)c3c(c(CC=C(C)C)c2O1)O[C@]12C(=C[C@@H]4C[C@H]1C(C)(C)O[C@@]2(C/C=C(/C)C(=O)O)C4=O)C3=O [GAMBOGIC ACID] | 387.5 | 370.7 | 367.8 | 329.0 | 325.1 | 343.3 | 286.6 | 299.4 | 341.5 | 304.1 | 265.2 | 369.1 | 308.8 | 334.5 | 328.9 | 279.3 | 285.4 | 317.0 | 
O=C(/C=C/c1ccc(/C=C/C(=O)Nc2ccc(C3=NCCN3)cc2)cc1)Nc1ccc(C2=NCCN2)cc1 [GW 4869] |  |  |  |  |  |  |  |  |  |  |  |  |  |  |  |  |  |  | Area under the dose-response curve (AUC) MCC13 Replicate 1 (MCC13 cells (VN-MCC)): 485.4; Area under the dose-response curve (AUC) MCC13 Replicate 2 (MCC13 cells (VN-MCC)): 474.1; Area under the dose-response curve (AUC) MCC13 Replicate 3 (MCC13 cells (VN-MCC)): 483.0; Area under the dose-response curve (AUC) MCC26 Replicate 1 (MCC26 cells (VN-MCC)): 426.9; Area under the dose-response curve (AUC) MCC26 Replicate 2 (MCC26 cells (VN-MCC)): 422.1; Area under the dose-response curve (AUC) MCC26 Replicate 3 (MCC26 cells (VN-MCC)): 445.3; Area under the dose-response curve (AUC) UISO Replicate 1 (UISO cells (VN-MCC)): 438.7; Area under the dose-response curve (AUC) UISO Replicate 2 (UISO cells (VN-MCC)): 454.7; Area under the dose-response curve (AUC) UISO Replicate 3 (UISO cells (VN-MCC)): 432.9; Area under the dose-response curve (AUC) WAGA Replicate 1 (WAGA cells (VP-MCC)): 473.9; Area under the dose-response curve (AUC) WAGA Replicate 2 (WAGA cells (VP-MCC)): 513.7; Area under the dose-response curve (AUC) WAGA Replicate 3 (WAGA cells (VP-MCC)): 487.4; Area under the dose-response curve (AUC) MKL-1 Replicate 1 (MKL-1 cells (VP-MCC)): 478.1; Area under the dose-response curve (AUC) MKL-1 Replicate 2 (MKL-1 cells (VP-MCC)): 455.5; Area under the dose-response curve (AUC) MKL-1 Replicate 3 (MKL-1 cells (VP-MCC)): 501.6; Area under the dose-response curve (AUC) MKL-2 Replicate 1 (MKL-2 cells (VP-MCC)): 446.9; Area under the dose-response curve (AUC) MKL-2 Replicate 2 (MKL-2 cells (VP-MCC)): 473.7; Area under the dose-response curve (AUC) MKL-2 Replicate 3 (MKL-2 cells (VP-MCC)): 455.4
CCC(=O)NC[C@H](Cc1ccc(OCCc2nc(-c3ccccc3)oc2C)cc1)N/C(C)=C\C(=O)c1ccc(C(F)(F)F)cc1 [GW-6471] |  |  |  |  |  |  |  |  |  |  |  |  |  |  |  |  |  |  | Area under the dose-response curve (AUC) MCC13 Replicate 1 (MCC13 cells (VN-MCC)): 508.4; Area under the dose-response curve (AUC) MCC13 Replicate 2 (MCC13 cells (VN-MCC)): 489.8; Area under the dose-response curve (AUC) MCC13 Replicate 3 (MCC13 cells (VN-MCC)): 459.0; Area under the dose-response curve (AUC) MCC26 Replicate 1 (MCC26 cells (VN-MCC)): 466.5; Area under the dose-response curve (AUC) MCC26 Replicate 2 (MCC26 cells (VN-MCC)): 438.7; Area under the dose-response curve (AUC) MCC26 Replicate 3 (MCC26 cells (VN-MCC)): 475.7; Area under the dose-response curve (AUC) UISO Replicate 1 (UISO cells (VN-MCC)): 430.2; Area under the dose-response curve (AUC) UISO Replicate 2 (UISO cells (VN-MCC)): 426.3; Area under the dose-response curve (AUC) UISO Replicate 3 (UISO cells (VN-MCC)): 403.1; Area under the dose-response curve (AUC) WAGA Replicate 1 (WAGA cells (VP-MCC)): 517.9; Area under the dose-response curve (AUC) WAGA Replicate 2 (WAGA cells (VP-MCC)): 512.0; Area under the dose-response curve (AUC) WAGA Replicate 3 (WAGA cells (VP-MCC)): 484.1; Area under the dose-response curve (AUC) MKL-1 Replicate 1 (MKL-1 cells (VP-MCC)): 475.3; Area under the dose-response curve (AUC) MKL-1 Replicate 2 (MKL-1 cells (VP-MCC)): 443.7; Area under the dose-response curve (AUC) MKL-1 Replicate 3 (MKL-1 cells (VP-MCC)): 500.6; Area under the dose-response curve (AUC) MKL-2 Replicate 1 (MKL-2 cells (VP-MCC)): 432.8; Area under the dose-response curve (AUC) MKL-2 Replicate 2 (MKL-2 cells (VP-MCC)): 489.1; Area under the dose-response curve (AUC) MKL-2 Replicate 3 (MKL-2 cells (VP-MCC)): 475.3
O=c1c(O)c(-c2ccccc2)oc2cc(O)cc(O)c12 [Galangin] | 503.7 | 491.8 | 491.4 | 449.4 | 457.3 | 461.1 | 481.0 | 489.8 | 457.6 | 519.0 | 499.5 | 488.3 | 490.3 | 490.8 | 492.0 | 477.3 | 508.2 | 500.6 | 
CCOC(=O)c1cnc2ccc(-c3cncc(NS(=O)(=O)c4ccccc4)c3)cn12 [HS-173] |  |  |  |  |  |  |  |  |  |  |  |  |  |  |  |  |  |  | Area under the dose-response curve (AUC) (MCC13 cells (VN-MCC)): 410.4 and 416.6 and 423.4; Area under the dose-response curve (AUC) (MCC26 cells (VN-MCC)): 371.1 and 368.1 and 383.3; Area under the dose-response curve (AUC) (UISO cells (VN-MCC)): 373.6 and 378.4 and 376.1; Area under the dose-response curve (AUC) (WAGA cells (VP-MCC)): 390.4 and 391.0 and 384.0; Area under the dose-response curve (AUC) (MKL-1 cells (VP-MCC)): 400.2 and 402.4 and 398.2; Area under the dose-response curve (AUC) (MKL-2 cells (VP-MCC)): 425.2 and 393.3 and 372.1
CCN(CCO)CCCC(C)Nc1ccnc2cc(Cl)ccc12 (stereo not drawn) [Hydroxychloroquine sulfate] | 495.6 | 487.6 | 467.0 | 423.8 | 423.8 | 468.3 | 504.6 | 448.6 | 420.1 | 540.2 | 519.3 | 458.7 | 541.8 | 486.3 | 499.9 | 454.2 | 416.6 | 490.5 | 

From article PMC11822212, “High-throughput screening identifies Aurora kinase B as a critical therapeutic target for Merkel cell carcinoma” (Nature Communications, 2025)
